Values quoted from earlier work, collected in US20100267661A1, “BETA GLUCANS AND METHODS OF USE THEREOF” (ImmuDyne, Inc., priority 2009, published 2010).

Details: rats

**Q.** With “(1,3)-β-D-glucan [particulate yeast (1,3)-β-D-glucan]” as the substance, how does the “Adverse or toxic effects” value read?
**A.** The value was “no adverse or toxic effects”.
